Our source for the MIC values is patent US9993000B2, “Isosorbide ether derivatives with preservation activity” (BASF SE, priority 2015, dated 2018).

Bounds are passed on as bounds.

What all share (test): Minimum Inhibitory Concentration (MIC) according to DIN 58 940
Holding throughout (format): cell-based

One experiment relates to Aspergillus brasiliensis. The conditions noted are these: Asperigillus brasiliensis. An excerpt: (§1) MIC: Determination of Minimum Inhibitory Concentration (MIC) according to DIN 58 940
The subject of another experiment is Brevibacterium epidermis.
Text: as §1

The next experiment deals with Candida albicans.
Text: as §1

The subject of the next experiment is Escherichia coli.
Text: as §1

A further experiment deals with Malassezia furfur. The conditions noted are these: Malasse zia furfur.
Text: as §1

Another experiment concerns Propionibacterium acnes.
Text: as §1

A further experiment deals with Pseudomonas aeruginosa.
Text: as §1

The next experiment concerns Staphylococcus aureus.
Text: as §1

Another experiment has as its system Staphylococcus epidermis.
Text: as §1

As for `CCCCCCCCOC1COC2C(OCCCCCCCC)COC12` (stereo not drawn) [Comperative compound (1), reference compound], the MIC in the experiment on Aspergillus brasiliensis, against Brevibacterium epidermis, in the experiment on Candida albicans, with Escherichia coli, in the experiment with Malassezia furfur and in the experiment on Propionibacterium acnes was >10,000 ppm in each case. Also, the MIC is recorded as >10,000 ppm with Pseudomonas aeruginosa, >10,000 ppm with Staphylococcus aureus and below 200 ppm against Staphylococcus epidermis.

For the molecule `CCCCCCCCOC1COC2C(O)COC12` (stereo not drawn) [Compound (1)], the MIC is on record as below 200 ppm against Aspergillus brasiliensis; below 500 ppm in the experiment on Brevibacterium epidermis; below 50 ppm with Candida albicans; <1,000 ppm with Escherichia coli; <1,000 ppm against Malassezia furfur; below 500 ppm against Propionibacterium acnes. Also, the MIC against Pseudomonas aeruginosa is given as <1,000 ppm; in the experiment with Staphylococcus aureus, below 500 ppm; with Staphylococcus epidermis it was below 100 ppm.

Turning to `CCCCCCCCCCCCOC1COC2C(O)COC12` (stereo not drawn) [Compound (2)], the MIC with Aspergillus brasiliensis is on record as at most 20 ppm; against Brevibacterium epidermis it was at most 20 ppm; in the experiment on Candida albicans, at most 20 ppm; in the experiment with Escherichia coli it was >10,000 ppm; in the experiment on Malassezia furfur it was 2,500 ppm; in the experiment on Propionibacterium acnes it was at most 20 ppm. For the same molecule, the MIC against Pseudomonas aeruginosa is on record as >10,000 ppm; against Staphylococcus aureus, below 50 ppm; with Staphylococcus epidermis it was at most 20 ppm.

Turning to `CCCCCCCCC(O)COC1COC2C(O)COC12` (stereo not drawn) [Compound (3)], the MIC with Aspergillus brasiliensis is recorded as below 1000 ppm; in the experiment with Brevibacterium epidermis, at most 200 ppm; with Candida albicans, at most 100 ppm; in the experiment with Escherichia coli, <2,000 ppm; in the experiment on Malassezia furfur it was at most 2500 ppm; against Propionibacterium acnes it was below 50 ppm. The results for the MIC in the experiment on Pseudomonas aeruginosa, in the experiment on Staphylococcus aureus and in the experiment with Staphylococcus epidermis were <1,000 ppm, below 500 ppm and at most 20 ppm, respectively.

Consider `CCCCCCCCCCC(O)COC1COC2C(O)COC12` (stereo not drawn) [Compound (4)], for which the MIC against Aspergillus brasiliensis is given as below 200 ppm; in the experiment on Brevibacterium epidermis, at most 20 ppm; against Candida albicans it was at most 20 ppm; against Escherichia coli it was <2,000 ppm; against Malassezia furfur it was at most 20 ppm; in the experiment with Propionibacterium acnes, below 100 ppm. Further, the figures for the MIC against Pseudomonas aeruginosa, against Staphylococcus aureus and with Staphylococcus epidermis were <1,000 ppm, below 100 ppm and at most 20 ppm, respectively.
